Data published in ChEMBL document CHEMBL2407022, “Advancement of Imidazo[1,2-a]pyridines with Improved Pharmacokinetics and Nanomolar Activity Against Mycobacterium tuberculosis” (ACS Med Chem Lett, 2013).
Converted amounts (≈) assume the structure as drawn.

How the values were obtained:
Format in all cases: functional
Conditions in all cases: 336 h
[1] = test system: Mycobacterium tuberculosis; assay: Antimycobacterial activity against isoniazid, rifampin, ethambutol, kanamycin and ofloxacin-resistant Mycobacterium tuberculosis after 14 days
[2] = test system: Mycobacterium tuberculosis; assay: Antimycobacterial activity against isoniazid, rifampin, ethambutol, streptomycin, kanamycin and ofloxacin-resistant Mycobacterium tuberculosis after 14 days
[3] = test system: Mycobacterium tuberculosis; assay: Antimycobacterial activity against isoniazid, rifampin, ethambutol, kanamycin and rifabutin-resistant Mycobacterium tuberculosis after 14 days

`Cc1ccc2nc(C)c(C(=O)NCc3ccccc3)n2c1` gave an MIC99 [1] of under 0.04 µM, an MIC99 [2] of under 0.04 µM and an MIC99 [3] of 2.3 µM (≈ 0.642 µg/mL).

`Cc1ccn2c(C(=O)NCc3ncc(C(F)(F)F)cc3Cl)c(C)nc2c1` showed an MIC99 [2] of 0.8 µM (≈ 0.306 µg/mL) and an MIC99 [3] of 13 µM (≈ 4.98 µg/mL).

Work on `Cc1ccn2c(C(=O)NCc3ccc(Oc4ccc(F)cc4)cc3)c(C)nc2c1` yielded an MIC99 [1] of under 0.03 µM, an MIC99 [2] of under 0.03 µM and an MIC99 [3] of 0.8 µM (≈ 0.312 µg/mL).

`O=[N+]([O-])c1cn2c(n1)OC[C@@H](OCc1ccc(OC(F)(F)F)cc1)C2` [PRETOMANID] was tested, and the MIC99 [1] was 0.2 µM (≈ 0.0719 µg/mL), the MIC99 [2] was 0.9 µM (≈ 0.323 µg/mL) and the MIC99 [3] was 0.5 µM (≈ 0.18 µg/mL).
